# Reference: US20260256753A1, “USE OF AN OREXIN 2 RECEPTOR AGONIST FOR IMPROVING RESPIRATORY FUNCTION DURING SLEEP” (TAKEDA PHARMACEUTICAL COMPANY LIMITED, priority 2023, published 2026)
# Tests used:
# [1] = test system: rats; assay: Arousal effects after oral administration in rats; assay type: in vivo, rat; details: oral administration at 10 mg/kg or more
# [2] = test system: patients with obstructive sleep apnea; assay: Phase 1b crossover study in obstructive sleep apnea: overnight polysomnography (PSG); assay type: in vivo, human
# Method: (§1) A phase 1b, randomized, double-blind, placebo-controlled, 3-period crossover study was conducted to evaluate the safety, tolerability, pharmacodynamic, and pharmacokinetic effects of overnight intravenous COMPOUND A in patients with obstructive sleep apnea (OSA). This study was planned to further evaluate COMPOUND A intravenous administration (IV) in adults with OSA, hypothesizing that nonwake-promoting exposures of COMPOUND A would increase genioglossal muscle tone and increase airway patency via the increasing activity of hypoglossal motoneurons. The main goal of this study was to evaluate the mechanistic potential of OX2R agonism for treatment of OSA using COMPOUND A IV infusion to determine appropriate use in future trials with an oral OX2R agonist.
# Participants were male or female, aged 18 to 75 years inclusive, with OSA diagnosed according to the International Classification of Sleep Disorders-3 (ICSD-3) criteria and an apnea hypopnea index (AHI) of 12 to 50 events/hour of sleep. The study consisted of a screening period, 3 treatment periods separated by 2 washout periods, and a follow-up period. A total of 13 participants were enrolled and randomized, of which 12 (92.3%) participants completed all planned doses of study drug and the study.
# (§2) Eligible participants were randomly assigned (in a double-blinded manner) to 1 of 6 treatment sequences. In each treatment period, participants underwent 3 UACI assessments, a 10-minute evaluation that tested the key biological mechanism that causes OSA (as described by Osman, A. M., et al., 2019, Sleep, 42 (7), 1-10), followed by an overnight polysomnography (PSG). After the first baseline UACI assessment (U1), an IV infusion regimen of COMPOUND A or placebo was administered over approximately 10 hours to achieve specific plasma concentrations to evaluate the effect of COMPOUND A on the UACI and PSG metrics. Target plasma concentrations for the low-dose COMPOUND A IV regimen were 10 ng/mL for the second UACI (U2), 30 ng/ml for the third UACI (U3), and 10 ng/ml for the overnight PSG. Target plasma concentrations for the high-dose COMPOUND A IV regimen were 30 ng/mL for the U2, 90 ng/mL for the U3, and 30 ng/ml for the overnight PSG.
# To achieve the target exposures for the UACI assessments (U2 and U3), there was a 20-minute loading period, followed by a 15-minute maintenance period for each. The overnight maintenance dose (approximately 490 minutes) covered the duration of a standard overnight PSG (approximately 8 hours). Doses were selected to cover the potential pharmacologically active concentration range for upper airway collapsibility. The concentration of COMPOUND A in solution was such that participants received the same volume of fluid in the low-dose COMPOUND A regimen, the high-dose COMPOUND A regimen, and placebo, allowing the study to be double-blinded and ensuring all participants were infused with the same volume of fluid.
# Following the baseline UACI measurements, IV infusion of placebo or COMPOUND A began. COMPOUND A was tested at 2 concentrations in a stepwise manner, consisting of a 20 minute loading period followed by a 15 minute maintenance period per step. The UACI was tested at each concentration during the maintenance period. A Karolinska Sleepiness Scale (KSS) was administered immediately prior to each UACI testing period to gauge subjective sleepiness. After the U3 test, a KSS was administered, after which the UACI testing equipment (pressure sensors, genioglossus EMG electrodes) was removed with the exception of EEG electrodes that remained in place to record PSG throughout the evening. Prior to lights off, a final KSS was administered. Lights-off occurred, and participants were then allowed to sleep until the following morning (Day 2). Infusion of COMPOUND A/placebo was maintained throughout the night during the nocturnal PSG (nPSG) and ended approximately 8 hours after lights off. Participants were then discharged on Day 2. […]
# [3] = molecular target: T1, OX2R (Homo sapiens, UniProt O43614); details: OX2R-expressed recombinant cells; cited from earlier work
# T1 sequence (O43614 1-444): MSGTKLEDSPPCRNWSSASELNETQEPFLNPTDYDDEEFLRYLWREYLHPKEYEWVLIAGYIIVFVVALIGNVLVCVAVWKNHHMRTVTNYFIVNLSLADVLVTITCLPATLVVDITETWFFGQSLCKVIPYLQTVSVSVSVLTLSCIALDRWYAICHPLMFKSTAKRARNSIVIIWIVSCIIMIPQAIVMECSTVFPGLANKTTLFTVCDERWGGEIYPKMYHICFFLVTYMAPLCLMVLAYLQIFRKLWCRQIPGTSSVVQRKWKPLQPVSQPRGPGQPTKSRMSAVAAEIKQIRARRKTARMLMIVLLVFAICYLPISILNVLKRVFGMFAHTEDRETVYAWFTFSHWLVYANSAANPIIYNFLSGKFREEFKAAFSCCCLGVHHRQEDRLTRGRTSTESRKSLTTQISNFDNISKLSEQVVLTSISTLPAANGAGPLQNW
# [4] = test system: patients with obstructive sleep apnea; assay: Phase 1b crossover study in obstructive sleep apnea: upper airway collapsibility index (UACI) during wakefulness; assay type: in vivo, human
# Method: as §1
# as §2, with “Target plasma concentrations for the low-dose COMPOUND A IV regimen were 10 ng/mL for the second UACI (U2), 30 ng/ml for the third UACI (U3), and 10 ng/ml for the overnight PSG. Target plasma concentrations for the high-dose COMPOUND A IV regimen were 30 ng/mL for the U2, 90 ng/mL for the U3, and 30 ng/ml for the overnight PSG.” left out
# [5] = 30 ng/ml continuously throughout the sleep period
SMILES,arousal effects [1],"REM [2, 5]","ability to fall asleep [2, 5]","sleep efficiency [2, 5]","wake after sleep onset [2, 5]",arousal threshold in response to ventilatory disturbance ([2]; high-dose regimen),hypoxic burden estimate ([2]; high-dose regimen),loop gain ([2]; high-dose regimen),AHI LS mean ([2]; high-dose regimen of 30 ng/ml overnight),"decrease in AHI ([2]; high-dose regimen of 30 ng/ml overnight, statistically and clinically significant)","pharyngeal collapsibility during sleep (Vpassive and Vactive) ([2]; high-dose regimen, OSA endotypes)","hypoxic burden ([2]; high-dose regimen, placebo-adjusted difference statistically significant)",hypoxic burden estimate ([2]; low-dose regimen),recruitment of β-arrestins [3],upper airway collapsibility as measured by UACI [4]
"CC(C)(O)C(=O)N1CC(F)(F)[C@H](NS(C)(=O)=O)[C@@H]1Cc1cccc(-c2cc(F)cc(F)c2)c1F [Compound C, N-{(2S,3R)-4,4-difluoro-1-(2-hydroxy-2-methylpropanoyl)-2-[(2,3′,5′-trifluoro[1,1′-biphenyl]-3-yl)methyl]pyrrolidin-3-yl}methanesulfonamide]",potent arousal effects,–,–,–,–,–,–,–,–,–,–,–,–,–,–
"COC(=O)N1CCC[C@H](NS(C)(=O)=O)[C@@H]1CO[C@H]1CC[C@@H](c2ccccc2)CC1 (relative stereo) [Compound A, methyl(2R,3S)-3-((methylsulfonyl)amino)-2-(((cis-4-phenylcyclohexyl)oxy)methyl) piperidine-1-carboxylate]",–,significantly decreased,did not cause an inability to fall asleep,reducing,increasing,decreased,≤ 53 %*minutes/hour,decreased,less than 30 events/hour,approximately 9 events/hour,appeared to decrease,beneficial reduction in hypoxic burden,≤ 53 %*minutes/hour,promote recruitment of β-arrestins,no consistent improvement
